According to the NIST ThermoML archive (doi:10.1021/je060107n):

Test: mn = molality of the nth substance listed, in mol/kg
Conditions: 101 kPa, Liquid; for mass density: Pycnometric method; for viscosity: Capillary tube (Ostwald / Ubbelohde) method; for speed of sound: Linear variable-path acoustic interferometer

CC(=O)[O-].CC(=O)[O-].[Mg+2] [magnesium acetate] + O
Conditions	mass density [kg/m3]	speed of sound [m/s]	viscosity [mPa·s]
314.7 K, m1 = 1.608	1097.8	–	–
314.75 K, m1 = 2.134	1125.2	–	–
314.85 K, m1 = 2.622	1148.5	–	–
315 K, m1 = 5.165	1241.7	–	–
315.2 K, m1 = 0.1671	1003.8	–	–
315.25 K, m1 = 3.437	1186.9	–	–
315.55 K, m1 = 3.819	1198.5	–	–
315.65 K, m1 = 3.043	1166.4	–	–
315.85 K, m1 = 1.866	1110.4	–	–
316.05 K, m1 = 1.106	1068	–	–
316.05 K, m1 = 6.187	1269	–	–
316.25 K, m1 = 0.0414	994.01	–	–
316.35 K, m1 = 6.545	1276.6	–	–
316.7 K, m1 = 0.646	1037.6	–	–
316.95 K, m1 = 0.0831	996.85	–	–
317.05 K, m1 = 2.622	1147.3	–	–
317.1 K, m1 = 0.4247	1021.9	–	–
317.15 K, m1 = 1.608	1096.6	–	–
317.3 K, m1 = 2.134	1124.1	–	–
317.3 K, m1 = 5.732	1255.6	–	–
317.7 K, m1 = 3.819	1197.2	–	–
317.9 K, m1 = 6.187	1267.7	–	–
318 K, m1 = 4.547	1220.8	–	–
318.15 K, m1 = 0.0414	–	1539.3	0.6244
318.15 K, m1 = 0.0831	–	1546	0.6418
318.15 K, m1 = 0.1671	–	1552.2	0.6857
318.15 K, m1 = 0.4247	–	1587.9	0.8341
318.15 K, m1 = 0.646	–	1613.4	0.9967
318.15 K, m1 = 0.8751	–	1638.1	1.163
318.15 K, m1 = 1.106	–	1661.5	1.405
318.15 K, m1 = 1.354	–	1683.6	1.679
318.15 K, m1 = 1.608	–	1705.8	1.679
318.15 K, m1 = 1.866	–	1727.8	2.437
318.15 K, m1 = 2.134	–	1749.8	2.967
318.15 K, m1 = 2.411	–	1773.8	3.777
318.15 K, m1 = 2.622	–	1782.8	4.254
318.15 K, m1 = 3.043	–	1808.1	5.774
318.15 K, m1 = 3.437	–	1832	8.453
318.15 K, m1 = 3.819	–	1846.6	–
318.15 K, m1 = 4.001	–	–	12.63
318.15 K, m1 = 4.547	–	1868.1	–
318.15 K, m1 = 4.563	–	–	19.6
318.15 K, m1 = 4.929	–	–	24.03
318.15 K, m1 = 5.165	–	1882.7	–
318.15 K, m1 = 5.41	–	–	41.38
318.15 K, m1 = 5.732	–	1888.5	53.77
318.15 K, m1 = 6.187	–	–	87.61
318.2 K, m1 = 1.866	1109.3	–	–
318.25 K, m1 = 6.545	1275.3	–	–
318.5 K, m1 = 0.0414	992.99	–	–
318.6 K, m1 = 1.327	1079.4	–	–
318.6 K, m1 = 2.411	1138.3	–	–
318.85 K, m1 = 5.165	1239	–	–
319.1 K, m1 = 1.354	1080.6	–	–
319.15 K, m1 = 0.646	1036.5	–	–
319.25 K, m1 = 2.622	1146.1	–	–
319.35 K, m1 = 0.8751	1050.8	–	–
319.4 K, m1 = 0.0831	995.82	–	–
319.5 K, m1 = 1.608	1095.5	–	–
319.5 K, m1 = 2.134	1122.8	–	–
319.65 K, m1 = 3.437	1184.4	–	–
319.95 K, m1 = 3.043	1164.1	–	–
319.95 K, m1 = 4.547	1219.5	–	–
319.95 K, m1 = 6.545	1273.9	–	–
320 K, m1 = 0.1671	1001.7	–	–
320.85 K, m1 = 0.0414	991.94	–	–
320.85 K, m1 = 5.732	1253	–	–
320.95 K, m1 = 1.106	1065.8	–	–
321.4 K, m1 = 0.646	1035.4	–	–
321.55 K, m1 = 6.187	1265.1	–	–
321.7 K, m1 = 3.819	1194.7	–	–
321.8 K, m1 = 6.545	1272.5	–	–
322.15 K, m1 = 0.4247	1019.9	–	–
322.15 K, m1 = 3.043	1162.9	–	–
322.3 K, m1 = 0.1671	1000.8	–	–
322.45 K, m1 = 5.165	1236.5	–	–
322.85 K, m1 = 1.866	1107.1	–	–
323.05 K, m1 = 1.106	1064.8	–	–
323.05 K, m1 = 1.327	1077.2	–	–
323.05 K, m1 = 2.411	1135.8	–	–
323.15 K, m1 = 0.0414	990.94	1544.5	0.5741
323.15 K, m1 = 0.0831	–	1549.2	0.5893
323.15 K, m1 = 0.1671	–	1557.7	0.6282
323.15 K, m1 = 0.4247	–	1591.1	0.7596
323.15 K, m1 = 0.646	–	1615.2	0.9059
323.15 K, m1 = 0.8751	–	1637.7	1.052
323.15 K, m1 = 1.106	–	1662.2	1.271
323.15 K, m1 = 1.354	–	1683.9	1.503
323.15 K, m1 = 1.608	–	1703.7	1.503
323.15 K, m1 = 1.866	–	1725	2.166
323.15 K, m1 = 2.134	–	1746.5	2.61
323.15 K, m1 = 2.411	–	1767.3	3.295
323.15 K, m1 = 2.622	–	1778.6	3.695
323.15 K, m1 = 3.043	–	1800.3	4.961
323.15 K, m1 = 3.437	–	1825	7.136
323.15 K, m1 = 3.819	–	1837.4	–
323.15 K, m1 = 4.001	–	–	10.52
323.15 K, m1 = 4.547	–	1857.2	–
323.15 K, m1 = 4.563	–	–	15.97
323.15 K, m1 = 4.929	–	–	19.29
323.15 K, m1 = 5.165	–	1871	–
323.15 K, m1 = 5.41	–	–	32.16
323.15 K, m1 = 5.732	–	1874.6	41.44
323.15 K, m1 = 6.187	–	–	65.72
323.45 K, m1 = 6.545	1271.3	–	–
323.5 K, m1 = 2.622	1143.8	–	–
323.65 K, m1 = 1.354	1078.3	–	–
323.75 K, m1 = 0.646	1034.3	–	–
323.75 K, m1 = 3.437	1181.9	–	–
323.75 K, m1 = 4.547	1217.1	–	–
323.95 K, m1 = 0.8751	1048.7	–	–
323.95 K, m1 = 2.134	1120.5	–	–
324.05 K, m1 = 1.608	1093.3	–	–
324.1 K, m1 = 0.0831	993.76	–	–
324.25 K, m1 = 0.4247	1018.8	–	–
324.25 K, m1 = 5.165	1235.2	–	–
324.55 K, m1 = 5.732	1250.4	–	–
325.15 K, m1 = 6.187	1262.4	–	–
325.25 K, m1 = 6.545	1269.9	–	–
325.75 K, m1 = 3.819	1192.2	–	–
328.55 K, m1 = 6.187	1259.8	–	–
